Data as given in patent publication US20250073209A1, “COVALENT TARGETING OF RhoA FOR CANCER THERAPY” (The University of Hong Kong, priority 2023, published 2025).

What was measured:
FLAG-RhoA = target: T1, FLAG-RhoA (Homo sapiens, UniProt P61586); assay: CL16-alkyne labeling of FLAG-RhoA in HCT116 cells (anti-FLAG IP, CuAAC, in-gel fluorescence); assay type: cell-based; settings: after immunoprecipitation and CuAAC
T1 construct: expressed in transfected cells; host or cells: HCT116
Experimental: HCT116 cells transiently expressing FLAG-RhoA were pre-treated with solvent vehicle or CL16 for 2 h, followed by the incubation with CL16-alkyne in complete medium for another 2 h. The cells were then lysed and subjected to immunoprecipitation by anti-FLAG beads. The enriched proteins were reacted with rhodamine azide through copper-catalyzed azide-alkyne cycloaddition (CuAAC), boiled with sampling buffer and separated by SDS-PAGE. The protein bands were then visualized by their in-gel fluorescence or blotted for RhoA. […] HCT116 cells were pre-treated with solvent vehicle or CL16 for 2 h, followed by the incubation with CL16-alkyne in complete medium for another 2 h. The cells were then lysed, reacted with rhodamine azide through CuAAC, boiled with sampling buffer, separated by SDS-PAGE and imaged. […]
To identify protein target and any off-targets of CL16 in CRCs, a molecular probe of CL16, CL16-alkyne (FIG. 6A), was synthesized. […] The protein bands were then visualized by their in-gel fluorescence or blotted for RhoA. […] The probe-labeled proteins were installed with rhodamine through CuAAC, and visualized by their in-gel fluorescence after SDS-PAGE. A protein band with strong fluorescence was found at −22 kDa in the sample incubated with CL16-alkyne only, in line with the molecular weight of RhoA (FIG. 6C).

[1] = reported studies; cited from earlier work
Cdc42 = Cdc42 (Homo sapiens, UniProt P60953); assay: Cdc42-GTP PAK-PBD pull-down in HT29 cells; assay type: cell-based; set-up: endogenous in cells; host or cells: HT29; settings: HT29, 30 μM (working concentration for RhoA inhibition)
Chain of Cdc42 (P60953 whole entry): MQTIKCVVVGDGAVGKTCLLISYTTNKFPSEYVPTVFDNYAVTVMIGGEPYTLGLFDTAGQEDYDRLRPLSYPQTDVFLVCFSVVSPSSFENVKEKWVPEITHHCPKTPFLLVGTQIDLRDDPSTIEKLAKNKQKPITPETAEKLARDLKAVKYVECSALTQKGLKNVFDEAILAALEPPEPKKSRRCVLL
From the text: The procedure is similar to that for RhoA-GTP assay, except that Rac1-GTP and Cdc42-GTP in CRC cells were first enriched by Rac1 Pull-Down Activation Assay Biochem Kit (Cytoskeleton #BK035) instead of using the RhoA kit. The enriched Rac1-GTP and Cdc42-GTP were then immunoblotted by Rac1/2/3 antibody (CST #2465) and Cdc42 antibody (CST #2462) respectively.
GTP loading onto RhoA is critical for the protein activation and mediating downstream signals. In view of the inhibitions of GDP-to-GTP exchange of RhoA by CL16 in vitro as discussed above, effects of CL16 on RhoA biology in colorectal cancer cells were examined. In the serum starvation-re-stimulation experiment, HCT116 cells were grown in serum-free medium with CL16, Rhosin or solvent control for 24 h, followed by stimulation with 10% FBS for 10 min. The cells were then lysed and the RhoA activity was assayed by the level of RhoA-GTP, which is the active form of RhoA. […] HT29 cells were incubated with solvent vehicle, CL16 or Rhosin in complete medium for 24 h. The cells were then washed, lysed and subjected to rhotekin pull-down for blotting RhoA-GTP, or PAK-PBD pull-down for blotting Rac1-GTP and Cdc42-GTP. Confocal fluorescence images from HCT116 and HT29 cells expressing FRET RhoA-biosensor in the serum starvation-restimulation experiment were taken.

T1 sequence (P61586 whole entry): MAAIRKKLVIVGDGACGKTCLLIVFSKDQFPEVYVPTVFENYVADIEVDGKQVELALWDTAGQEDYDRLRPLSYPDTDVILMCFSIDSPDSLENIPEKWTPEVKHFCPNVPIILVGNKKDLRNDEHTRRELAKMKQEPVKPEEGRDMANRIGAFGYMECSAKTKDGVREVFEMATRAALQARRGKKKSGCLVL

Structure (SMILES)	probe labeling of FLAG-RhoA (in-gel fluorescence) (FLAG-RhoA)	working concentration (anticancer efficacy) [1]	Cdc42 activity (Cdc42-GTP) (Cdc42)
C#CCOc1cccc2oc(C3=NN(C(=O)CCl)C(c4ccco4)C3)cc12 (stereo not drawn) [CL16-alkyne]	strong fluorescence from FLAG-RhoA protein	–	–
N[C@H](Cc1c[nH]c2ccccc12)C(=O)N/N=C/c1ccc2nccnc2c1 [Rhosin, reference compound]	–	≥ 30 µM	inhibited Cdc42
